A short description of the series: physchem. The note with it: for solubility / solubility at 18 h: 25 °C. As for the experimental part: To measure the SVE of a drug, saturated solutions of the drug are prepared in methanol and chloroform. An appropriate means of preparing a saturated solution is to suspend approximately 60 mg of drug in 3 ml of the solvent and stir for 24 hours at room temperature. If all of the drug dissolves during this time, further 10 mg aliquots should be added until a suspension is again formed. After 24 hours, the suspension are centrifuged or filtered to separate drug in solution from undissolved particulate drug. The drug solutions are assayed for drug content by an appropriate means, eg. high performance liquid chromatography, and the saturated solubility calculated. The SVE is calculated by dividing the solubility in chloroform by the solubility in methanol and expressed as weight in volume (w/v).
Into each of two 10 ml bottles was weighed 60 mg of itraconazole. To one bottle was added 3 ml of chloroform. […] Further itraconazole was added in 100 mg aliquots until a suspension was formed. […] To the other bottle was added 3 ml of methanol. A magnetic stirrer bar was added to each bottle and the contents were left to stir on a magnetic stirrer. After being left overnight to stir (18 hours), the contents of each bottle were filtered through a 0.1 μm PTFE filter (Whatman). […] To assay the methanol filtrate for itraconazole content, 1 ml was diluted to 5 ml with the same diluent used for the chloroform analysis. Both samples were assayed for itraconazole content using reverse-phase high performance liquid chromatography.

The mark [1] stands for this setting: oil or lipid, Solubility (mg/ml) Vitamin E.
The mark [2] stands for this setting: organic solvent or mixture, thermodynamic from solid, Solubility (mg/ml) Chloroform.
The mark [3] stands for this setting: organic solvent or mixture, thermodynamic from solid, Solubility (mg/ml) Methanol.

≈ marks a conversion by molar mass, not a printed value.

`C[C@@H]1[C@H](O)[C@@H](C)/C=C/C=C/C=C/C=C/C=C/C=C/C=C/[C@H](O[C@@H]2O[C@H](C)[C@@H](O)[C@H](N)[C@@H]2O)C[C@@H]2O[C@](O)(C[C@@H](O)C[C@@H](O)[C@H](O)CC[C@@H](O)C[C@@H](O)CC(=O)O[C@H]1C)C[C@H](O)[C@H]2C(=O)O` [Amphotericin]: the “Solubility (mg/ml) Chloroform” value is recorded as “insol”, the “Solubility (mg/ml) Vitamin E” value was “insol” and the “Solubility (mg/ml) Water” value is given as “insol”.

Regarding `CC(C)CCC[C@@H](C)[C@H]1CC[C@H]2[C@@H]3CC=C4C[C@@H](O)CC[C@]4(C)[C@H]3CC[C@]12C` [Cholesterol], the “Solubility (mg/ml) Water” value is “insol”. Under setting [1], this molecule returned a solubility of 150 mg/mL (≈ 388 mM). The solubility under setting [2] was 200 mg/mL (≈ 517 mM). In addition, under setting [3], the solubility turned out to be 5 mg/mL (≈ 12.9 mM).

Take `CC(C)[C@@H](C)/C=C/[C@@H](C)[C@H]1CC[C@H]2C3=CC=C4C[C@@H](O)CC[C@]4(C)[C@H]3CC[C@]12C` [Ergosterol]: the “Solubility (mg/ml) Water” value is “insol”. In addition, the concentration in solution under setting [1] (solubility) was 50 mg/mL (≈ 126 mM). For the same molecule, the solubility under setting [2] stood at 32 mg/mL (≈ 80.7 mM). For the same molecule, the solubility under setting [3] came to 1.5 mg/mL (≈ 3.78 mM).

On to `CCC(C)n1ncn(-c2ccc(N3CCN(c4ccc(OCC5COC(Cn6cncn6)(c6ccc(Cl)cc6Cl)O5)cc4)CC3)cc2)c1=O` (centres unmarked) [Itraconazole], for which the “Solubility (mg/ml) Water” value was “insol”. This molecule gave a solubility under setting [1] of 60 mg/mL (≈ 85 mM). The solubility (oil or lipid, solubility of the drug in vegetable oils) is no more than 0.4 mg/mL. Further, the solubility under setting [2] is 500 mg/mL (≈ 709 mM). For the same molecule, where the note is “organic solvent or mixture, thermodynamic from solid, solubility of itraconazole in chloroform”, the solubility at 18 h was 350 mg/mL (≈ 496 mM). Moreover, the solubility at 18 h (organic solvent or mixture, thermodynamic from solid, solubility of itraconazole in methanol) was 0.7 mg/mL (≈ 0.992 mM). Further, the SVE value (18 h) was 500.

`C[C@]12C=CC(=O)C=C1CC[C@@H]1[C@@H]2[C@@H](O)C[C@@]2(C)[C@H]1CC[C@]2(O)C(=O)CO` [Prednisolone]: under “organic solvent or mixture, thermodynamic from solid, Solubility (mg/ml) Methanol, methanol, room temperature (25° C.)”, the solubility was determined as 33 mg/mL (≈ 91.6 mM).

Consider `CC(=O)O[C@H]1C(=O)[C@@]2(C)[C@H]([C@H](OC(=O)c3ccccc3)[C@]3(O)C[C@H](OC(=O)[C@H](O)[C@@H](NC(=O)c4ccccc4)c4ccccc4)C(C)=C1C3(C)C)[C@]1(OC(C)=O)CO[C@@H]1C[C@@H]2O` [Taxol], for which the “Solubility (mg/ml) Water” value is “insol”.

(Values after patent US20020025337A1, “LIPID VEHICLE DRUG DELIVERY COMPOSITION CONTAINING VITAMIN E” (priority 1995, published 2002).)
